{"source": "patent US20230134986A1", "about": "“GLUCOSE TRIPTOLIDE CONJUGATES AND USES THEREOF” (The Johns Hopkins University, priority 2020, published 2023)", "key": {"HEK 293T cells": {"system": "HEK 293T cells", "experiment": "HEK293T cell proliferation assay ([3H]-thymidine incorporation)", "assay_type": "cell-based, human", "conditions": "Homo sapiens; anti-proliferative activity, HEK 293T cells, 24 h drug exposure; read-out: IC50 ± SEM", "from_the_text": "Cells and culture conditions. Primary astrocytes (Lonza, Walkersville, Md.; ABM™ Basal Media with AGM™ SingleQuots™ Supplement Pack), fibroblast (ATCC; Fibroblast Basal Medium (ATCC© PCS-201-030™) with Fibroblast Growth Kit-Serum-free (ATCC© PCS-201-040™)), airway epithelial cell (ATCC; Airway Epithelial Cell Basal Medium (ATCC© PCS-300-030™) with Bronchial Epithelial Cell Growth Kit (ATCC© PCS-300-040™)), renal proximal tubule (ATCC; Renal Epithelial Cell Basal Medium (ATCC© PCS-400-030™) with Renal Epithelial Cell Growth Kit (ATCC© PCS-400-040™)), prostate epithelial cell (Lonza; PrEGM™ BulletKit™) and mammary epithelial cell (Lonza; MEBM™ BulletKit™) were kept in a humidified incubator at 37° C. adjusted to 5% CO2. Prostate (PC3, LNCaP, DU-145), breast (MDA-MB-231, MDA-MB-453, SK-BR-3), head and neck (A253, Detroit 562, SCC-25), melanoma (SK-Mel-3, SK-Mel-1, RPMI-7951), pancreatic (CfPAC-1, BxPC3, SW1990), lung (A549, NCI-H1299, NCI-H1437) and liver (SNU-475, SK-HEP-1, SNU-387) cancer cell lines were obtained from ATCC and cultured in their respective media (prostate cells: RPMI-1640, MDA-MB-231: RPMI-1640, MDA-MB-453: Leibovitz's L-15, SK-BR-3: McCoy's 5a, A253: McCoy's 5a, Detroit 562: EMEM, SCC-25: DMEM, SK-Mel-3: McCoy's 5a, SK-Mel-1: EMEM, RPMI-7951: EMEM), CfPAC-1: IMDM, BxPC3: RPMI-1640, SW1990: Leibovitz's L-15), A549: F-12K, NCI-H1299: RPMI-1640, NCI-H1437: RPMI-1640, SNU-475: RPMI-1640, SK-HEP-1: EMEM, SNU-387: RPMI-1640. All media were supplemented with 10% (vol/vol) filtered fetal bovine serum (FBS, Invitrogen, Carlsbad, Calif.), 1% penicillin/streptomycin (Invitrogen) and maintained in a humidified incubator at 37° C. with 5% CO2 except for MDA-MB-453 and SW1990 grown at 37° C. without CO2 control. Wild type (ATCC) and C342T XPB knock-in cells (named T7115) of Human Embryonic Kidney 293T (HEK293T), HeLa (ATCC) were cultured in DMEM (GIBCO) with 10% (vol/vol) filtered fetal bovine serum (FBS, Invitrogen, Carlsbad, Calif.), 1% penicillin/streptomycin (Invitrogen).\n(§1) Proliferation and viability assays. [^3H]-thymidine incorporation. HEK293T cells (10,000 cells/well) were seeded into 96-well plates then cultured in DMEM plus 10% FBS and 1% penicillin/streptomycin at 37° C. with 5% CO2 overnight. Drugs were added at indicated concentrations and incubation was continued for an additional 24 h. For hypoxia, PC3 (5,000 cells/well) were exposed to 1% O2 (Airgas) in a humidified hypoxia chamber (Billups-Rothenberg) in 37° C. for 48 h prior to drug exposure for 48 h. Treated cells were then pulsed using an aliquot of 1 μCi of [^3H]-thymidine (Perkin Elmer) per well for an additional 6 h. Radiolabelled cells were harvested onto a printed Filtermat A glass fiber filter (Perkin Elmer) using a Tomtec Harvester 96 Mach III M. Betaplate Scint (Perkin Elmer) scintillation fluid was added to radiolabelled filters followed by scintillation counting on Microbeta2 LumiJET Microplate Counter (Perkin Elmer)."}, "[1]": {"system": "T7115 (C342T XPB knock-in HEK293T cells)", "experiment": "Proliferation of XPB C342T knock-in cell line T7115 ([3H]-thymidine incorporation)", "assay_type": "cell-based, human", "conditions": "C342T XPB knock-in versus isogenic WT 293T", "from_the_text": "(§2) Cells and culture conditions. Primary astrocytes (Lonza, Walkersville, Md.; ABM™ Basal Media with AGM™ SingleQuots™ Supplement Pack), fibroblast (ATCC; Fibroblast Basal Medium (ATCC© PCS-201-030™) with Fibroblast Growth Kit-Serum-free (ATCC© PCS-201-040™)), airway epithelial cell (ATCC; Airway Epithelial Cell Basal Medium (ATCC© PCS-300-030™) with Bronchial Epithelial Cell Growth Kit (ATCC© PCS-300-040™)), renal proximal tubule (ATCC; Renal Epithelial Cell Basal Medium (ATCC© PCS-400-030™) with Renal Epithelial Cell Growth Kit (ATCC© PCS-400-040™)), prostate epithelial cell (Lonza; PrEGM™ BulletKit™) and mammary epithelial cell (Lonza; MEBM™ BulletKit™) were kept in a humidified incubator at 37° C. adjusted to 5% CO2. […]"}, "TFIIH": {"biological_target": "T1, TFIIH (Homo sapiens, UniProt P19447)", "T1 construct": "made in house", "experiment": "DNA-dependent ATPase activity assay of TFIIH", "assay_type": "biochemical", "conditions": "200 nM triptolide", "experimental": "ATPase activity assay. The TFIIH complex was purified and its DNA-dependent ATPase assay was performed as previously described (Titov et al. (2011) Nat. Chem. Biol. 7:182-88). Briefly, a 10-μl reaction mixture contained 20 mM Tris (pH 7.9), 4 mM MgCl2, 1 μM of ATP, 0.1 μCi [^γ-^32P]ATP (3000 Ci/mmol), 100 μg/ml BSA, 100 nM RNA Polymerase II promoter positive control DNA, 1 nM TFIIH and indicated concentrations of triptolide or its analogs. The reactions were started by either addition of TFIIH for 2 hr and stopped by addition of 2 μl of 0.5 M EDTA. An aliquot of 1 μl reaction mixture was spotted on PEI-cellulose (sigma) and the chromatogram was developed with 0.5 M LiCi and 1 M HCOOH. The percent of ATP hydrolysis was quantified using a Typhoon FLA 9500 Variable Imager (GE Healthcare)."}, "PC3 cells": {"system": "PC3 cells", "experiment": "PC3 proliferation under hypoxia or normoxia ([3H]-thymidine incorporation)", "assay_type": "cell-based, human", "conditions": "for IC50: Homo sapiens, PC-3, 48 h, 48 h post treatment, read-out: IC50", "experimental": "as §1"}, "HeLa": {"system": "HeLa", "experiment": "HeLa proliferation under hypoxia ([3H]-thymidine incorporation)", "assay_type": "cell-based, human", "conditions": "1% O2, 48 h post treatment"}, "MDA MB231 cells": {"system": "MDA MB231 cells", "experiment": "MDA MB231 proliferation under hypoxia ([3H]-thymidine incorporation)", "assay_type": "cell-based, human", "conditions": "MDA MB231, 1% O2, 48 h post treatment"}, "MCF-7": {"system": "MCF-7", "experiment": "MCF-7 proliferation under hypoxia ([3H]-thymidine incorporation)", "assay_type": "cell-based, human", "conditions": "MCF-7, 1% O2, 48 h post treatment"}, "HepG2": {"system": "HepG2", "experiment": "HepG2 proliferation under hypoxia ([3H]-thymidine incorporation)", "assay_type": "cell-based, human", "conditions": "HepG2, 1% O2, 48 h post treatment"}, "[2]": {"system": "RPB1 in C342T XPB mutant cell line", "experiment": "RPB1 degradation in C342T XPB knock-in cells, western blot", "assay_type": "cell-based, human", "conditions": "XPB C342T cells, 0.1 mM triptolide (so in the source); 0.1 μM)", "from_the_text": "as §2\n(§3) Western blot analysis. […] Antibody-protein complexes were detected using enhanced chemiluminescence (ECL) immunoblotting detection reagent (EMD Millipore)."}, "Rpb1 in 293T WT cells": {"system": "Rpb1 in 293T WT cells", "experiment": "RPB1 degradation in 293T WT cells, western blot", "assay_type": "cell-based, human", "conditions": "0.1 mM triptolide (so in the source); 0.1 μM)", "from_the_text": "as §2, §3"}, "[3]": {"conditions": "lethal case dosed with 18 mg/m2 F60008; cited from earlier work"}}, "note": "Like-named read-outs stand apart in the source and are kept apart here."}
{"smiles": "CC(C)[C@]12O[C@H]1[C@@H]1O[C@]13[C@]1(O[C@H]1C[C@H]1C4=C(CC[C@@]13C)C(=O)OC4)[C@@H]2O", "note": "[TPL, (1S,2S,4S,5S,7R,8R,9S,11S,13 S)-8-hydroxy-1-methyl-7-propan-2-yl-3,6,10,16 tetraoxaheptacyclo[11.7.0.02,4.02,9.05,7.09,11.014,18] icos-14(18)-en-17-one, reference compound]", "values": [{"measurement": "IC50", "setting": "HEK 293T cells", "result": 5.6, "unit": "nM"}, {"measurement": "sensitivity of T7115 mutant line (proliferation)", "setting": "[1]", "result": "resistant"}, {"measurement": "inhibition of ATPase activity of TFIIH", "setting": "TFIIH", "result": "effectively suppresses activity"}, {"measurement": "inhibition of ATPase activity of TFIIH", "setting": "TFIIH; listed as triptolide", "result": "nearly completely inhibited"}, {"measurement": "IC50", "setting": "PC3 cells; PC3, hypoxic conditions (1% O2)", "result": 1.5, "unit": "nM"}, {"measurement": "IC50", "setting": "PC3 cells; PC3, normoxic conditions (20% O2)", "result": 4.5, "unit": "nM"}, {"measurement": "fold enhancement of anti-proliferative effect during hypoxia", "setting": "PC3 cells; PC3, hypoxia versus normoxia", "result": "three-fold"}, {"measurement": "effect of hypoxia on anti-proliferative effect", "setting": "HeLa", "result": "modest anti-proliferative effect"}, {"measurement": "effect of hypoxia on anti-proliferative effect", "setting": "MDA MB231 cells", "result": "modest anti-proliferative effect"}, {"measurement": "effect of hypoxia on anti-proliferative effect", "setting": "MCF-7", "result": "modest anti-proliferative effect"}, {"measurement": "effect of hypoxia on anti-proliferative effect", "setting": "HepG2", "result": "showed resistance upon hypoxia"}, {"measurement": "Rpb1 level", "setting": "[2]", "result": "Rpb1 levels resemble DMSO control"}, {"measurement": "degradation of Rpb1", "setting": "Rpb1 in 293T WT cells", "result": "leads to the degradation of the Rpb1 subunit"}, {"measurement": "Maximum serum levels", "setting": "[3]", "result": 58.5, "unit": "ng/mL"}, {"measurement": "Maximum serum levels (molar)", "setting": "[3]", "result": "~0.16", "unit": "mM"}]}
